In ChEMBL document CHEMBL4251615, “Discovery of anilino-furo[2,3-d]pyrimidine derivatives as dual inhibitors of EGFR/HER2 tyrosine kinase and their anticancer activity” (Eur J Med Chem, 2018):

Experiments:
HOP-92 = assay: Growth inhibition of human HOP92 cells assessed as cell growth at 10 uM incubated for 48 hrs by sulforhodamine B assay relative to control; type: functional; conditions: HOP-92, 48 h, read-out: Activity
T47D = assay: Growth inhibition of human T47D cells assessed as cell growth at 10 uM incubated for 48 hrs by sulforhodamine B assay relative to control; type: functional; conditions: read-out: Activity
NCI/ADR-RES = assay: Growth inhibition of human NCI/ADR-RES cells assessed as cell growth at 10 uM incubated for 48 hrs by sulforhodamine B assay relative to control; type: functional; conditions: read-out: Activity
U-251 = assay: Growth inhibition of human U251 cells assessed as cell growth at 10 uM incubated for 48 hrs by sulforhodamine B assay relative to control; type: functional; conditions: U-251, 48 h, read-out: Activity
OVCAR-3 = assay: Growth inhibition of human OVCAR3 cells assessed as cell growth at 10 uM incubated for 48 hrs by sulforhodamine B assay relative to control; type: functional; conditions: OVCAR-3, 48 h, read-out: Activity
SNB-75 = assay: Growth inhibition of human SNB75 cells assessed as cell growth at 10 uM incubated for 48 hrs by sulforhodamine B assay relative to control; type: functional; conditions: SNB-75, 48 h, read-out: Activity
[1] = target: Receptor tyrosine-protein kinase erbB-2 (Homo sapiens) (UniProt P04626); assay: Inhibition of recombinant human N-terminal GST-tagged HER2 (679 to 1255 residues) expressed in baculovirus infected Sf9 cells at 10 uM using poly[Glu:Tyr] (4:1) as substrate after 40 mins by Kinase-Glo plus luminescence assay relative to control
RPMI-8226 = assay: Growth inhibition of human RPMI8226 cells assessed as cell growth at 10 uM incubated for 48 hrs by sulforhodamine B assay relative to control; type: functional; conditions: RPMI-8226, 48 h, read-out: Activity
CAKI-1 = assay: Growth inhibition of human Caki1 cells assessed as cell growth at 10 uM incubated for 48 hrs by sulforhodamine B assay relative to control; type: functional; conditions: CAKI-1, 48 h, read-out: Activity
OVCAR-4 = assay: Growth inhibition of human OVCAR4 cells assessed as cell growth at 10 uM incubated for 48 hrs by sulforhodamine B assay relative to control; type: functional; conditions: OVCAR-4, 48 h, read-out: Activity
SK-MEL-28 = assay: Growth inhibition of human SK-MEL-28 cells assessed as cell growth at 10 uM incubated for 48 hrs by sulforhodamine B assay relative to control; type: functional; conditions: SK-MEL-28, 48 h, read-out: Activity
MDA-MB-435 = assay: Growth inhibition of human MDA-MB-435 cells assessed as cell growth at 10 uM incubated for 48 hrs by sulforhodamine B assay relative to control; type: functional; conditions: MDA-MB-435, 48 h, read-out: Activity
PC-3 = assay: Growth inhibition of human PC3 cells assessed as cell growth at 10 uM incubated for 48 hrs by sulforhodamine B assay relative to control; type: functional; conditions: PC-3, 48 h, read-out: Activity
KM12 = assay: Growth inhibition of human KM12 cells assessed as cell growth at 10 uM incubated for 48 hrs by sulforhodamine B assay relative to control; type: functional; conditions: KM12, 48 h, read-out: Activity
DU-145 = assay: Growth inhibition of human DU145 cells assessed as cell growth at 10 uM incubated for 48 hrs by sulforhodamine B assay relative to control; type: functional; conditions: DU-145, 48 h, read-out: Activity
HCT-116 = assay: Growth inhibition of human HCT116 cells assessed as cell growth at 10 uM incubated for 48 hrs by sulforhodamine B assay relative to control; type: functional; conditions: HCT-116, 48 h, read-out: Activity
Malme-3M = assay: Growth inhibition of human MALME-3M cells assessed as cell growth at 10 uM incubated for 48 hrs by sulforhodamine B assay relative to control; type: functional; conditions: read-out: Activity
SW-620 = assay: Growth inhibition of human SW620 cells assessed as cell growth at 10 uM incubated for 48 hrs by sulforhodamine B assay relative to control; type: functional; conditions: SW-620, 48 h, read-out: Activity
TK-10 = assay: Growth inhibition of human TK10 cells assessed as cell growth at 10 uM incubated for 48 hrs by sulforhodamine B assay relative to control; type: functional; conditions: TK-10, 48 h, read-out: Activity
SK-MEL-5 = assay: Growth inhibition of human SK-MEL-5 cells assessed as cell growth at 10 uM incubated for 48 hrs by sulforhodamine B assay relative to control; type: functional; conditions: SK-MEL-5, 48 h, read-out: Activity
HOP-62 = assay: Growth inhibition of human HOP62 cells assessed as cell growth at 10 uM incubated for 48 hrs by sulforhodamine B assay relative to control; type: functional; conditions: HOP-62, 48 h, read-out: Activity
LOX IMVI = assay: Growth inhibition of human LOXIMVI cells assessed as cell growth at 10 uM incubated for 48 hrs by sulforhodamine B assay relative to control; type: functional; conditions: read-out: Activity
RXF 393 = assay: Growth inhibition of human RXF393 cells assessed as cell growth at 10 uM incubated for 48 hrs by sulforhodamine B assay relative to control; type: functional; conditions: RXF 393, 48 h, read-out: Activity
A549 = assay: Growth inhibition of human A549/ATCC cells assessed as cell growth at 10 uM incubated for 48 hrs by sulforhodamine B assay relative to control; type: functional; conditions: A549, 48 h, read-out: Activity
HT-29 = assay: Growth inhibition of human HT-29 cells assessed as cell growth at 10 uM incubated for 48 hrs by sulforhodamine B assay relative to control; type: functional; conditions: HT-29, 48 h, read-out: Activity
SNB-19 = assay: Growth inhibition of human SNB19 cells assessed as cell growth at 10 uM incubated for 48 hrs by sulforhodamine B assay relative to control; type: functional; conditions: SNB-19, 48 h, read-out: Activity
SK-MEL-2 = assay: Growth inhibition of human SK-MEL-2 cells assessed as cell growth at 10 uM incubated for 48 hrs by sulforhodamine B assay relative to control; type: functional; conditions: SK-MEL-2, 48 h, read-out: Activity
SF-295 = assay: Growth inhibition of human SF295 cells assessed as cell growth at 10 uM incubated for 48 hrs by sulforhodamine B assay relative to control; type: functional; conditions: SF-295, 48 h, read-out: Activity

Receptor tyrosine-protein kinase erbB-2 (Homo sapiens), sequence (P04626 whole entry, the tested form may be a part): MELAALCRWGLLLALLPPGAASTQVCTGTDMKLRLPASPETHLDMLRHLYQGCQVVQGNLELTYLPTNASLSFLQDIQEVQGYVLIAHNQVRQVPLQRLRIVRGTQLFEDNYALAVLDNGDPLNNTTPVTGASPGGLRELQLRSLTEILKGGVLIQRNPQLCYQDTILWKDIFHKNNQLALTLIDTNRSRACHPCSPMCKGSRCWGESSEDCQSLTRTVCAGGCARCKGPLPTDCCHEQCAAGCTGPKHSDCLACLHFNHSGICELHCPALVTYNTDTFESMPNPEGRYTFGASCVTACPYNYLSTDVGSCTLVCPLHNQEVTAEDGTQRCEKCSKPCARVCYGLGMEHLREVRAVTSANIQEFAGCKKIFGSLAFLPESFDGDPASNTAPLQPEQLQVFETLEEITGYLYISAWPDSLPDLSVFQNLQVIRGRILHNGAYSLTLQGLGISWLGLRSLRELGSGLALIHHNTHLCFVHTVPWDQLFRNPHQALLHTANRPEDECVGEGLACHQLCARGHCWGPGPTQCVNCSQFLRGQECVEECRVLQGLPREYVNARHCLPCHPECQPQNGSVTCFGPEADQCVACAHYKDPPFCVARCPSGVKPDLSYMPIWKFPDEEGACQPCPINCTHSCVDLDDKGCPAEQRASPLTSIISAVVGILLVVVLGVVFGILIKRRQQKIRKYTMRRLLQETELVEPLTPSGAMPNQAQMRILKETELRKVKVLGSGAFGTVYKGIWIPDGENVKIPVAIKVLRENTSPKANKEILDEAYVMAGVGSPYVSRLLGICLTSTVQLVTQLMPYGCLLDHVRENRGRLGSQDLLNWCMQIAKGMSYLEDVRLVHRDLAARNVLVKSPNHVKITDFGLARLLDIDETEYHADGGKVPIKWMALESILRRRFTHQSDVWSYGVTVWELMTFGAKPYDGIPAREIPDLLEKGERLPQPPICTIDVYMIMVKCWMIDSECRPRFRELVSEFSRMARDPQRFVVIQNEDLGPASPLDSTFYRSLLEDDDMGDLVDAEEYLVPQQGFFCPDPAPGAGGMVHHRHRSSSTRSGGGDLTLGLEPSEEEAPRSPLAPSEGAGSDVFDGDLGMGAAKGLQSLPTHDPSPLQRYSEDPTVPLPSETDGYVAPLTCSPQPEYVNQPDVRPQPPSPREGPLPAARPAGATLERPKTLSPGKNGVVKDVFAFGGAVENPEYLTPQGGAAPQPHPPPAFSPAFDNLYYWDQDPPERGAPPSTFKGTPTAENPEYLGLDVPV

Structure (SMILES) | growth at 10 µM (HOP-92) | growth at 10 µM (T47D) | growth at 10 µM (NCI/ADR-RES) | growth at 10 µM (U-251) | growth at 10 µM (OVCAR-3) | growth at 10 µM (SNB-75) | inhibition [1] | growth at 10 µM (RPMI-8226) | growth at 10 µM (CAKI-1) | growth at 10 µM (OVCAR-4) | growth at 10 µM (SK-MEL-28) | growth at 10 µM (MDA-MB-435) | growth at 10 µM (PC-3) | growth at 10 µM (KM12) | growth at 10 µM (DU-145) | growth at 10 µM (HCT-116) | growth at 10 µM (Malme-3M) | growth at 10 µM (SW-620) | growth at 10 µM (TK-10) | growth at 10 µM (SK-MEL-5) | also measured
CCOC(=O)c1c(C)oc2ncnc(Nc3ccc(OCc4ccc(Cl)cc4)cc3)c12 | 107% | 84% | 101% | 107% | 117% | 116% | 18% | 111% | 94% | 104% | 101% | 104% | 100% | 101% | 106% | 98.7% | 123% | 106% | 87.4% | 95.8% | growth at 10 µM (HOP-62): 97.7%; growth at 10 µM (LOX IMVI): 95.8%; growth at 10 µM (RXF 393): 85.9%; growth at 10 µM (A549): 86.5%; growth at 10 µM (HT-29): 94.4%; growth at 10 µM (SNB-19): 111%; growth at 10 µM (SK-MEL-2): 105%; growth at 10 µM (SF-295): 97.9%
CCOC(=O)c1c(C)oc2ncnc(Nc3ccc(OCc4cccc(C)c4)cc3)c12 | 104% | 87.3% | 97% | 96.4% | 117% | 106% | 16% | 117% | 95.6% | 105% | 101% | 104% | 93.4% | 96.1% | 101% | 90.6% | 126% | 101% | 94.7% | 99.2% | growth at 10 µM (HOP-62): 101%; growth at 10 µM (LOX IMVI): 91.8%; growth at 10 µM (RXF 393): 111%; growth at 10 µM (A549): 88.9%; growth at 10 µM (HT-29): 87.5%; growth at 10 µM (SNB-19): 99.7%; growth at 10 µM (SK-MEL-2): 100%; growth at 10 µM (SF-295): 101%
